The nature of this data set: Herbal composition/SNAC oral rat pharmacokinetic (PK) study (Example 5). In kind it is in vivo. Conditions: rats; for increase in AUC0-Tlast / increase in Cmax: oral, 50 mg/kg cannabis extract + 500 mg/kg SNAC; for time to reach the mean maximum plasma concentration (Tmax): single oral gavage. On the procedure: Example 5. Summary of an herbal composition/SNAC oral rat pharmacokinetic (PK) study.
Methods. Animals were dosed on Day 1 and a series of blood samples were collected over a period of 4 hours post dose for pharmacokinetic evaluation. Animals were euthanized following collection of their last blood sample.

As to `C=C(C)[C@@H]1CCC(C)=C[C@H]1c1c(O)cc(CCCCC)cc1O` [CBD], the “increase in AUC0-Tlast” value is 22.1 fold and the “increase in Cmax” value turned out to be 14.2 fold.
As to `CCCCCc1cc(O)c2c(c1)OC(C)(C)[C@@H]1CCC(C)=C[C@@H]21` [THC], the “increase in AUC0-Tlast” value was determined as 6.3 fold and the “increase in Cmax” value is 6.9 fold. Further, under “high dose group (50 mg extract/kg + 500 mg SNAC/kg)”, the “time to reach the mean maximum plasma concentration (Tmax)” value worked out at 2 hours post dose. Besides, the “time to reach the mean maximum plasma concentration (Tmax)” value (low and mid dose groups (25 mg extract/kg + 250 or 500 mg SNAC/kg)) came to 1 hour post dose.

The values above are taken from US20240000879A1, “HERBAL COMPOSITIONS WITH IMPROVED BIOAVAILABILITY” (priority 2017, published 2024).
